From paper PMC10532587, “An Investigation of Structure–Activity Relationships and Cell Death Mechanisms of the Marine Alkaloids Discorhabdins in Merkel Cell Carcinoma Cells” (Marine Drugs, 2023)
Like-named read-outs stand apart in the source and are kept apart here.

Assays:
caspase-3 = tested on: caspase-3; set-up: method as in PMID 9917313; conditions: cited from earlier work
MCC cell lines = assay: Cell survival by CellTiterGlo, MCC cell lines together; assay type: cell-based; conditions: for averaged potency (IC50) across all MCC cell lines tested: average over MCC cell lines
Description: (§1) Three methods were employed for assessment of MCC and control cell survival/viability after discorhabdin treatment, two metabolic assays and a cell permeability assay. For all three methods, cells were plated in 384-well plates at 2500 cells/well and treated with various concentrations of discorhabdins for various time periods. CellTiterGlo^TM (Promega, Madison, WI, USA) measures cellular ATP content and was used to estimate potency of discorhabdins in cell viability assays as previously described. Continuous monitoring of metabolic activity was accomplished using a cellular reducing potential luminescence assay, the RealTime-Glo^TM MT Cell Viability Assay (Promega, Madison, WI, USA) according to manufacturer’s instructions. Loss of cell plasma membrane integrity was assessed using a cell-impermeant molecule that becomes fluorescent upon binding DNA [82] in parallel with apoptosis detection per manufacturer’s instructions (RealTimeGlo^TM Annexin V Apoptosis and Necrosis Assay-Promega). Two additional assays of apoptotic cell death were also used. Caspase activation in response to treatment of MCC cells by discorhabdins or bortezomib (as a positive control) was measured using the CaspaseGlo® 3/7 Assay (Promega, Madison, WI, USA) according to the manufacturer’s instructions at multiple time points. Inhibition of apoptotic cell death was investigated using pre-treatment of cells with for 1 h with the pan-caspase inhibitor Z-VAD-FMK (Enzo Life Sciences, Farmingdale, NY, USA) followed by treatment with discorhabdins or bortezomib and estimation of cell viability as outlined above.
(§2) In order to compare responses among all of the discorhabdins and cell lines (98 combinations), dose–response curves were generated using identical discorhabdin dilution series. GraphPad Prism 8 (San Diego, CA, USA) software was utilized to graph dose–response data and to calculate IC50 values and area under the dose–response curves (AUC) along with 95% confidence interval estimates using four-parameter logistic nonlinear regression analysis. For further analysis and comparisons, AUC for each cell line/discorhabdin pair was visualized in a heatmap generated in R version 1.3.1073 (R Core Team (2013). R: A language and environment for statistical computing. R Foundation for Statistical Computing, Vienna, Austria, http://www.R-project.org/ (accessed on 12 January 2023).

Waga = assay: Cell survival by CellTiterGlo, VP-MCC line Waga; assay type: cell-based; conditions: for IC50: CellTiterGlo, normalized to DMSO; for AUC (arbitrary units) WaGa: area under the dose-response curve
MKL-2 = assay: Cell survival by CellTiterGlo, VP-MCC line MKL-2; assay type: cell-based; conditions: for IC50: CellTiterGlo, normalized to DMSO; for AUC (arbitrary units) MKL-2: area under the dose-response curve
MKL-1 = assay: Cell survival by CellTiterGlo, VP-MCC line MKL-1; assay type: cell-based; conditions: VP-MCC; for IC50: MKL-1, CellTiterGlo, normalized to DMSO, read-out: IC50 (nM) MKL-1; for AUC (arbitrary units) MKL-1: area under the dose-response curve
[1] = tested on: control (HaCaT) and Merkel cell carcinoma cell lines; assay: Cell survival by CellTiterGlo, all seven cell lines; assay type: cell-based; conditions: MCC and control cell lines
Description: as §1, §2
Figure S39: Activity of discorhabdins against M CC cell lines.
The indicated discorh abd ins were ass essed for th eir ability to affect surviv al of control (H aCaT) and Merkel cell carcino ma cell lines (VN-MCC: MCC13, MCC26, UISO and VP -MCC: MKL-1, MKL-2, Wag a). Cells were plat ed at 2500 cells/well and compounds the next day. Cell survival was estimated by CellTiterGlo (normalized to untreated (DMSO) cells on the same plate). Structures w ere o btained from the supplier and/or the PubChem database or as described in the text. Number in bold in ( ) refers to structures in Figure 1 in the text. Curves were plotted and IC50 values and 95% confidence interval calculated by GraphPad software. […]

UISO = assay: Cell survival by CellTiterGlo, VN-MCC line UISO; assay type: cell-based; conditions: for IC50: CellTiterGlo, normalized to DMSO; for AUC (arbitrary units) UISO: area under the dose-response curve
HaCaT = assay: Cell survival by CellTiterGlo, control cells; assay type: cell-based, human; conditions: for IC50: Homo sapiens, HaCaT; for AUC (arbitrary units) HaCaT: area under the dose-response curve, control cells
[2] = tested on: VP-MCC cell lines (MKL-1, MKL-2, and Waga); assay: Selectivity VP-MCC versus control cells (average AUC); assay type: cell-based
From the text: as §2
Figure S41: Discorhabdi nselectivity
Discorhabdin selectivity for VP -MCC and VN- MCCcells was estimated by comparison of activity (average AUC) for each dis corhabdin against VP -MCC (panel A) or VN- MCC (panel B) cell lines compared to control cells . Discorhabdins were sort ed by selectivity from most to least selective. - fold dif fer ence = (av e VN -MCC or VP -MCC AUC/ control AUC). Error bars […]
(1 picture or pasted object on this page, not shown here)

MCC26 = assay: Cell survival by CellTiterGlo, VN-MCC line MCC26; assay type: cell-based; conditions: for IC50: CellTiterGlo, normalized to DMSO; for AUC (arbitrary units) MCC26: area under the dose-response curve
MCC13 = assay: Cell survival by CellTiterGlo, VN-MCC line MCC13; assay type: cell-based; conditions: for IC50: CellTiterGlo, normalized to DMSO; for AUC (arbitrary units) MCC13: area under the dose-response curve
MKL-1 cells = assay: Mitochondrial membrane potential (JC-10) in MKL-1 cells; assay type: cell-based; conditions: 10 µM, normalized to DMSO control
Description: (§3) Cells were treated with the indicated discorhabdins (10 µM) and assessed for mitochondrial membrane potential (MMP) using JC-10 ratiometric dye. JC-10 was added for the last hour of incubation. Cellular reducing potential was assessed using a RealTimeGlo MT Cell Viability kit, and cellular ATP levels using CellTiterGlo. All values were normalized to DMSO control. Error bars (n = 3–4) represent sd. See Figures S45 and S46 for additional cell line/discorhabdin combinations, concentrations, and time points for reducing potential and MMP, respectively.
(§4) Mitochondrial membrane potential (MMP) was assessed using the JC-10 ratiometric dye (Sigma, St. Louis, MO, USA). UISO or MKL-1 cells were treated in black-walled, clear-bottom 384-well plates (Corning Life Sciences, Durham, NC, USA) with discorhabdins or doxorubicin (Sigma, St. Louis, MO, USA) as a positive control for up to 24 h with JC-10 for the last 1 h of incubation. Red/green fluorescence signals were measured, the red/green ratio for each well was calculated and normalized to untreated (DMSO) control wells for the same cell line and incubation time to determine relative MMP.

MCC cells [3] = assay: Cellular ATP content (CellTiterGlo), time course; assay type: cell-based; conditions: 10 µM, normalized to DMSO control
Description: as §3
(§5) Three methods were employed for assessment of MCC and control cell survival/viability after discorhabdin treatment, two metabolic assays and a cell permeability assay. For all three methods, cells were plated in 384-well plates at 2500 cells/well and treated with various concentrations of discorhabdins for various time periods. […] Continuous monitoring of metabolic activity was accomplished using a cellular reducing potential luminescence assay, the RealTime-Glo^TM MT Cell Viability Assay (Promega, Madison, WI, USA) according to manufacturer’s instructions. Loss of cell plasma membrane integrity was assessed using a cell-impermeant molecule that becomes fluorescent upon binding DNA [82] in parallel with apoptosis detection per manufacturer’s instructions (RealTimeGlo^TM Annexin V Apoptosis and Necrosis Assay-Promega). […]

MCC cells [4] = assay: Cellular reducing potential (RealTime-Glo MT Cell Viability); assay type: cell-based; conditions: 10 µM; normalized to DMSO control
Description: as §3, §5

UISO cells = assay: Mitochondrial membrane potential (JC-10) in UISO cells; assay type: cell-based; conditions: 10 µM, normalized to DMSO control
Description: as §3, §4

caspase-3/7 [5] = assay: Caspase-3/7 activation (CaspaseGlo 3/7) in UISO cells; assay type: cell-based; conditions: 8 or 24 h; normalized to DMSO control
Description: (§6) (a) Caspase activation. Cells were treated for 8 or 24 h with indicated discorhabdins or bortezomib. Caspase-3/7 activity was determined (Promega CaspaseGLO-3/7) and normalized to untreated (DMSO) control cells. Error bars represent sd (n = 4). (b). Apoptosis/necrosis. Cells were treated for up to 24 h with the indicated discorhabdins and assessed for Annexin binding and cell permeability using the Promega RealTime-Glo™ Annexin V Apoptosis and Necrosis Assay kit. Luminescence indicates Annexin binding, fluorescence indicates membrane permeability.
as §1, with “Inhibition of apoptotic cell death was investigated using pre-treatment of cells with for 1 h with the pan-caspase inhibitor Z-VAD-FMK (Enzo Life Sciences, Farmingdale, NY, USA) followed by treatment with discorhabdins or bortezomib and estimation of cell viability as outlined above.” left out

caspase-3/7 [6] = assay: Caspase-3/7 activation (CaspaseGlo 3/7) in MKL-1 cells; assay type: cell-based; conditions: 8 or 24 h; normalized to DMSO control
Description: as §6
as §1, with “Inhibition of apoptotic cell death was investigated using pre-treatment of cells with for 1 h with the pan-caspase inhibitor Z-VAD-FMK (Enzo Life Sciences, Farmingdale, NY, USA) followed by treatment with discorhabdins or bortezomib and estimation of cell viability as outlined above.” left out

[7] = prostate cancer xenograft model; cited from earlier work
MCC cells [8] = assay: Cell death after pretreatment with pan-caspase inhibitor Z-VAD-FMK; assay type: cell-based; conditions: Z-VAD-FMK 40 µM, 1 h pretreatment; discorhabdins 10 µM, bortezomib 1 µM
Description: as §1, with “Inhibition of apoptotic cell death was investigated using pre-treatment of cells with for 1 h with the pan-caspase inhibitor Z-VAD-FMK (Enzo Life Sciences, Farmingdale, NY, USA) followed by treatment with discorhabdins or bortezomib and estimation of cell viability as outlined above.” left out

[9] = control skin cell line, CellTiterGlo, normalized to DMSO, read-out: IC50 (nM) HaCaT

Structure (SMILES) | averaged potency (IC50) across all MCC cell lines tested (MCC cell lines) | IC50 (Waga) [nM] | AUC (arbitrary units) WaGa (Waga) [arbitrary units] | IC50 (MKL-2) [nM] | AUC (arbitrary units) MKL-2 (MKL-2) [arbitrary units] | IC50 (MKL-1) [nM] | AUC (arbitrary units) MKL-1 (MKL-1) [arbitrary units] | activity on cell viability, in words [1] | IC50 (UISO) [nM] | AUC (arbitrary units) UISO (UISO) [arbitrary units] | IC50 (HaCaT; [9]) [nM] | AUC (arbitrary units) HaCaT (HaCaT) [arbitrary units] | increased activity against VP-MCC compared to the control [2] [fold] | IC50 (MCC26) [nM] | AUC (arbitrary units) MCC26 (MCC26) [arbitrary units] | IC50 (MCC13) [nM] | AUC (arbitrary units) MCC13 (MCC13) [arbitrary units] | mitochondrial membrane potential (MMP), MKL-1 (MKL-1 cells) | caspase-3/7 activation, UISO (caspase-3/7 [5]) | caspase-3/7 activation, MKL-1 (caspase-3/7 [6]) | other results
Cn1cc2c3c1C(=O)C1=C(C3=NCC2)C2(C=C(Br)C(=O)C(Br)=C2)CCN1 [Compound 17, discorhabdin P] | sub-micromolar | 106 | 14.11 | 87 | 17.05 | 68 | 7.146 | more potent than discorhabdin C in all seven cell lines | 292 | 50.65 | 1260 | 150.9 | > 10 | 1210 | 140.1 | 499 | 64.76 | – | – | – | caspase-3 inhibition (caspase-3): reported to inhibit caspase-3
O=C1C=C2S[C@H]3C[C@]2(C=C1Br)C1=C(N3)C(=O)c2[nH]cc3c2C1=NCC3 [Compound 2, (+)-(6S,8S) discorhabdin B] | sub-micromolar | 75 | 9.624 | 90 | 14.49 | 25 | 3.635 | comparable activity against MCC and control cell lines | 331 | 39.51 | 1040 | 133.9 | > 10 | 731 | 83.94 | 426 | 51.68 | significantly reduced | lack of caspase-3/7 activation | lack of caspase-3/7 activation | fold more active than discorhabdin Q (3) against MCC cells (MCC cell lines; comparator discorhabdin Q (3)): > 10 fold; fold more active against MCC cells compared to 3 (MCC cell lines; comparator printed as 3, sentence is about discorhabdin G*/I (4)): 3 fold; cellular ATP content (MCC cells [3]): loss of cellular ATP content was dramatic and rapid; cellular reducing potential (MCC cells [4]): dropped significantly; IC50 (HaCaT; read-out: IC50 for control cells): ≤ 1000 nM; mitochondrial membrane potential (MMP), UISO (UISO cells): significantly reduced
O=C1C2=C3C4=[N+](CCc5c[nH]c1c54)[C@@H]1C(=O)C=C4S[C@@H](C[C@@]43[C@H]1O)N2 [Compound 12, (−)-(1R,2S,6R,8S) discorhabdin L] | sub-micromolar | 440 | 55.36 | 245 | 50.71 | 83 | 13.23 | – | 660 | 103 | 2550 | 290.4 | – | 1130 | 140.6 | 466 | 93.66 | significantly reduced | lack of caspase-3/7 activation | lack of caspase-3/7 activation | cellular ATP content (MCC cells [3]): loss of cellular ATP content was dramatic and rapid; cellular reducing potential (MCC cells [4]): dropped significantly; in vivo toxicity in animals [7]: minimal in vivo toxicity; mitochondrial membrane potential (MMP), UISO (UISO cells): significantly reduced
CC(C)C[C@H](NC(=O)[C@H](Cc1ccccc1)NC(=O)c1cnccn1)B(O)O [bortezomib, reference compound] | – | – | – | – | – | – | – | – | – | – | – | – | – | – | – | – | – | – | robustly activates caspase | robustly activates caspase | effect of Z-VAD-FMK pretreatment on induced MCC cell death (MCC cells [8]): reduced bortezomib-induced
